Measured values reported in PMC6152226, “Composition and Antioxidant, Antienzymatic and Antimicrobial Activities of Volatile Molecules from Spanish Salvia lavandulifolia (Vahl) Essential Oils” (Molecules : A Journal of Synthetic Chemistry and Natural …, 2017).
≈ marks a conversion by molar mass, not a printed value. Counter-ions that a name gives are not always drawn. Like-named read-outs stand apart in the source and are kept apart here.

Columns and labels:
[1] = test system: Escherichia coli ATCC 8739; test: Broth microdilution MIC and MBC; format: cell-based
Method: (§1) The following test microorganisms used in this work were acquired from Sigma-Aldrich: Pseudomonas aeruginosa ATCC 9027, Escherichia coli ATCC 8739, Staphylococcus aureus ATCC 6538, and Candida albicans ATCC 10231. The stock cultures were preserved in TSB or YPD with 15% glycerol, for bacteria and yeast cells, respectively, at −80 °C. Isolated colonies from an 18- to 24-h agar plate were transferred to MHB for bacteria and RPMI-1640 for C. albicans.
(§2) MIC were determined using the broth microdilution method in 96-well microplates, according to the M07-A10 [69] standard for bacteria and the M27-A3 [70] for Candida. Briefly, two-fold dilutions of a 40 µL/mL SlEOs were prepared to obtain a final concentration range of 0.08–20 µL/mL with 0.5% Tween®80 and 2.5% DMSO. The antimicrobial activities of main compounds were also tested in the concentration range of 0.12–15 mM with 0.5% Tween®80 and 2.5% DMSO as solvent. The final strain concentration was 5 × 10^5 CFU/mL in MHB for the bacteria and 0.5−2.5 × 10^3 in RPMI-1640 for the yeast. These plates were incubated for 24 h for bacteria and 48 h for Candida, both at 35 ± 1 °C, under aerobic conditions on a plate shaker at 100 rpm. Streptomycin (0.06–8.00 µg/mL) and fluconazole (0.13–16 µg/mL) were used as reference antibacterial and antifungal compound, respectively. […] MIC is defined as the lowest concentration of EO or individual compound with no visible growth of microorganisms, at the end of the incubation period. […] All determinations were carried out in triplicate.

[2] = test system: Staphylococcus aureus ATCC 6538; test: Broth microdilution MIC and MBC; format: cell-based
Method: as §1, §2

[3] = test system: Candida albicans ATCC 10231; test: Broth microdilution MIC and MFC; format: cell-based
Method: as §1, §2

[4] = Oxygen radical absorbance capacity (ORAC) assay; conditions: individual compounds; maximum assay concentration 100 mM
Method: (§3) Five antioxidant methods were performed with SlEOs and their main individual compounds in triplicate. In the oxygen radical absorbance capacity (ORAC) assay, peroxyl radicals are produced by 2,2′-Azobis(2-methylpropionamidine) dihydrochloride (AAPH), which reacts with fluorescein giving a non-fluorescent compound [61]. The antioxidants are able to scavenge these peroxyl radicals. Trolox was used as the reference antioxidant. The 2,2-diphenyl-1-picrylhydrazyl (DPPH) and 2,2′-azino-bis(3-ethylbenzothiazoline-6-sulphonic acid) (ABTS) methods measure the bleaching produced by the reduction of the coloured DPPH and ABTS radicals. Trolox was used as the reference antioxidant. The RdP method measure the ability to reduce ferric ions, according to the method of Oyaizu. Ascorbic acid was the reference antioxidant used in this method. The ChP method measured the ability to chelate Fe^2+ ion, following the method of Miguel et al.. EDTA was used as reference antioxidant. The SlEOs were diluted in 100% ethanol in the DPPH, ABTS, RdP and ChP methods, whereas in the ORAC method, SlEOs were diluted in 15% ethanol to obtain a final concentration of 5% ethanol in the reaction medium. All measurements were made at the end-point of the reaction, except in the ORAC method (Figure S5).

[5] = Chelating power (ChP) method; conditions: individual compounds; maximum assay concentration 100 mM
Method: as §3

ABTS radical method = conditions: individual compounds; maximum assay concentration 100 mM
Method: as §3

[6] = Reducing power (RdP) method; conditions: individual compounds; maximum assay concentration 100 mM
Method: as §3

DPPH radical method = conditions: individual compounds; maximum assay concentration 100 mM
Method: as §3

| Structure (SMILES) | MIC ([1]; ATCC8739, 24 h, read-out: MIC) | MBC ([1]; ATCC8739, read-out: MBC) | MIC ([2]; ATCC6538, 24 h, read-out: MIC) | MBC ([2]; ATCC6538, read-out: MBC) | MIC ([3]; ATCC10231, 48 h, read-out: MIC) | MFC ([3]; ATCC10231, read-out: MFC) | ORAC [4] | ChP [5] | ABTS (ABTS radical method) | RdP [6] | DPPH (DPPH radical method) | other results |
| --- | --- | --- | --- | --- | --- | --- | --- | --- | --- | --- | --- | --- |
| C=C1CCC2(C(C)C)CC12 (stereo not drawn) [Sabinene] | > 2000 µg/mL | > 2000 µg/mL | > 2000 µg/mL | > 2000 µg/mL | > 2000 µg/mL | > 2000 µg/mL |  |  |  |  |  |  |
| C=CC(=C)CCC=C(C)C [Myrcene] | > 2100 µg/mL | > 2100 µg/mL | > 2100 µg/mL | > 2100 µg/mL | > 2100 µg/mL | > 2100 µg/mL | N/D (Activity lower than 0.05 units at a maximum assay concentration of 100 mM) | 2.5 ± 0.2 µmol EDTAE/mmol X | N/D (Activity lower than 0.05 units at a maximum assay concentration of 100 mM) | N/D (Activity lower than 0.05 units at a maximum assay concentration of 100 mM) | N/D (Activity lower than 0.05 units at a maximum assay concentration of 100 mM) |  |
| CC1(C)C2CCC1(C)C(O)C2 (stereo not drawn) [Borneol] | 1100 µg/mL (≈ 7.13 mM) | 1100 µg/mL (≈ 7.13 mM) | 300 µg/mL (≈ 1.94 mM) | 300 µg/mL (≈ 1.94 mM) | 600 µg/mL (≈ 3.89 mM) | 600 µg/mL (≈ 3.89 mM) | N/D (Activity lower than 0.05 units at a maximum assay concentration of 100 mM) | N/D (Activity lower than 0.05 units at a maximum assay concentration of 100 mM) | N/D (Activity lower than 0.05 units at a maximum assay concentration of 100 mM) | N/D (Activity lower than 0.05 units at a maximum assay concentration of 100 mM) | N/D (Activity lower than 0.05 units at a maximum assay concentration of 100 mM) |  |
| C/C1=C\CC/C(C)=C/CC(C)(C)/C=C/C1 [α-Humulene] |  |  |  |  |  |  |  |  |  |  |  | MBC [1]: >3000 µg/mL; MIC ([1]; 24 h): >3000 µg/mL; MBC [2]: 3000 µg/mL (≈ 14.7 mM); MIC ([2]; 24 h): 1600 µg/mL (≈ 7.83 mM); MFC [3]: >3000 µg/mL; MIC ([3]; 48 h): >3000 µg/mL |
| C=C1CC/C=C(\C)CC[C@@H]2[C@@H]1CC2(C)C [β-Caryophyllene, (E)-β-Caryophyllene] | > 3100 µg/mL | > 3100 µg/mL | > 3100 µg/mL | > 3100 µg/mL | > 3100 µg/mL | > 3100 µg/mL | 394.7 ± 14.5 µmol TE/mmol X | 7.1 ± 0.5 µmol EDTAE/mmol X | N/D (Activity lower than 0.05 units at a maximum assay concentration of 100 mM) | N/D (Activity lower than 0.05 units at a maximum assay concentration of 100 mM) | N/D (Activity lower than 0.05 units at a maximum assay concentration of 100 mM) |  |
| C=C1CCC2CC1C2(C)C (stereo not drawn) [β-Pinene] | > 2000 µg/mL | > 2000 µg/mL | > 2000 µg/mL | > 2000 µg/mL | > 2000 µg/mL | > 2000 µg/mL | 26.6 ± 1.6 µmol TE/mmol X | 1.8 ± 0.1 µmol EDTAE/mmol X | 0.1 ± 0.0 µmol TE/mmol X | N/D (Activity lower than 0.05 units at a maximum assay concentration of 100 mM) | N/D (Activity lower than 0.05 units at a maximum assay concentration of 100 mM) |  |
| CC(C)C12CCC(C)(O)C1C2 (stereo not drawn) [Sabinene hydrate] |  |  |  |  |  |  | N/D (Activity lower than 0.05 units at a maximum assay concentration of 100 mM) | 6.7 ± 0.6 µmol EDTAE/mmol X | 0.5 ± 0.0 µmol TE/mmol X | N/D (Activity lower than 0.05 units at a maximum assay concentration of 100 mM) | N/D (Activity lower than 0.05 units at a maximum assay concentration of 100 mM) |  |
| CC1=CC=C(C(C)C)CC1 [α-Terpinene] |  |  |  |  |  |  | N/D (Activity lower than 0.05 units at a maximum assay concentration of 100 mM) | 62.2 ± 4.7 µmol EDTAE/mmol X | 4.0 ± 0.2 µmol TE/mmol X | 1.9 ± 0.1 µmol AAE/mmol X | 0.3 ± 0.0 µmol TE/mmol X |  |
| OC(Cn1cncn1)(Cn1cncn1)c1ccc(F)cc1F [Fluconazole, reference compound] |  |  |  |  | 4 µg/mL (≈ 0.0131 mM) | 4 µg/mL (≈ 0.0131 mM) |  |  |  |  |  |  |
| C=CC(C)(CCC=C(C)C)OC(C)=O (stereo not drawn) [Linalyl acetate] |  |  |  |  |  |  | 207.1 ± 13.2 µmol TE/mmol X | 27.4 ± 2.1 µmol EDTAE/mmol X | 0.1 ± 0.0 µmol TE/mmol X | N/D (Activity lower than 0.05 units at a maximum assay concentration of 100 mM) | N/D (Activity lower than 0.05 units at a maximum assay concentration of 100 mM) | MBC ([1]; ATCC8739): > 3000 µg/mL; MIC ([1]; ATCC8739, 24 h): > 3000 µg/mL; MBC ([2]; ATCC6538): > 3000 µg/mL; MIC ([2]; ATCC6538, 24 h): 3000 µg/mL; MFC ([3]; ATCC10231): > 3000 µg/mL; MIC ([3]; ATCC10231, 48 h): > 3000 µg/mL |
| CC1=CCC(C(C)C)=CC1 [γ-Terpinene] |  |  |  |  |  |  | 171.4 ± 10.3 µmol TE/mmol X | 0.3 ± 0.0 µmol EDTAE/mmol X | 2.5 ± 0.1 µmol TE/mmol X | 0.3 ± 0.0 µmol AAE/mmol X | 0.3 ± 0.0 µmol TE/mmol X |  |
| Cc1ccc(C(C)C)cc1 [p-Cymene] | 1000 µg/mL (≈ 7.45 mM) | 2000 µg/mL (≈ 14.9 mM) | > 2000 µg/mL | > 2000 µg/mL | 500 µg/mL (≈ 3.73 mM) | 500 µg/mL (≈ 3.73 mM) | N/D (Activity lower than 0.05 units at a maximum assay concentration of 100 mM) | 20.1 ± 1.6 µmol EDTAE/mmol X | 0.1 ± 0.0 µmol TE/mmol X | N/D (Activity lower than 0.05 units at a maximum assay concentration of 100 mM) | N/D (Activity lower than 0.05 units at a maximum assay concentration of 100 mM) |  |
| [H]/N=C(/N)N[C@H]1[C@H](O)[C@@H](O)[C@H](O[C@@H]2O[C@@H](C)[C@](O)(C=O)[C@H]2O[C@@H]2O[C@@H](CO)[C@H](O)[C@@H](O)[C@@H]2NC)[C@@H](N/C(N)=N\[H])[C@@H]1O [Streptomycin sulfate, reference compound] | 1 µg/mL | 1 µg/mL | 1 µg/mL | 1 µg/mL |  |  |  |  |  |  |  |  |
